# Where “and” joins values, the source holds several entries; their conditions need not be identical. Equal entries are not always repeated. Entries after “also recorded” stand apart in the source; their conditions may differ. Where two headings read alike, the source gives them in different places.
# How the values were obtained:
# [1] = Urinary recovery of PTA and PTB after intravenous administration of PTA; type: in vivo, Jersey heifers; settings: twelve hours after iv administration of PTA
# Method: Intravenous administration of PTA. In Experiment 1 the dose of purified PTA (0.21 mg kg^-1 body weight (b.w.) / 0.527 μmoles kg^-1) was dissolved in 10 mL of sterile water in a brown glass vial 1 hour before administration and protected from light. The solution was injected through a catheter (Cavafix Certo: 45 cm, 16 G; B. Braun Melsungen AG, Melsungen, Germany) placed in the right jugular vein. Blood samples were collected through another catheter placed in the left jugular vein. Blood samples were collected in heparinized glass tubes before and at predetermined times (10, 20, 30, 45 min and 1, 2, 4, 6, 8, 12, 21 and 24 hours) after PTA administration. The blood was centrifuged for 15 min at 3000 g to separate plasma which then was stored immediately at -18°C until assayed within a week following the method of Aranha et al.. Urine was collected quantitatively in urinary bags (Ratiomed GmBH, München, Germany) through a Foley catheter (Rusch Silasil no 16; Teleflex, Milan, Italy) inserted into the bladder. […]
# (§1) PTA and PTB were analysed by LC-MS after purification using solid phase extraction (SPE) columns as reported in Aranha et al.. The limit of quantification of PTA and PTB in plasma was 3.0 x 10^−3 μM and 9.30 x 10^−3 μM, respectively. Limit of quantifications in diluted urine was 13 x 10^−3 μM for PTA and 8.28 x 10^−3μM for PTB.
# [2] = Incubation of bracken extract in rumen liquid, in vitro; type: in vitro ADME, Jersey cows; settings: for PTB concentration in rumen liquid: initial PTA 17 μM
# Method: Samples of rumen contents were collected from two rumen fistulated Jersey cows. The cows were fed daily with 6 kg of complete feedingstuff (Danish Ragna Grønmix; Danish Agro, Karise, Denmark) and 2 kg of hay. Barley straw and water were provided ad libitum. The rumen liquid fraction was obtained by passing the digest through a 250 μm nylon filter. From each cow, 150 mL rumen liquid was pre-incubated at 37°C under CO2 atmosphere for 10 min before 5 mL of bracken extract was added in order to obtain an initial PTA concentration of 17 μM. PTA stability was assessed by removal of 2.5 mL sample for PTA determination after incubation for 0, 5, 15, 30, 60 and 120 min at 37 °C. The sample was immediately centrifuged for 3 min at 8,500 g and analysed following the method of Aranha et al.. The pH in rumen liquid was determined at the beginning and termination of the experiment.
# Rumen liquid samples were cleaned on HLB cartridges and processed as plasma samples. PTA and PTB calibration curves were prepared in ruminal fluid deactivated by boiling for 5 minutes. The recovery of PTA and PTB in ruminal fluid was 74% (± 0.5%) and 80% (± 1.2%), respectively.
# [3] = Presence of glucuronides and sulphates in urine (B-glucuronidase/arylsulfatase incubation); type: in vivo, Jersey heifers; settings: urine after iv PTA
# Method: The presence of glucuronides and sulphates was assessed by incubating 1 ml of buffered urine samples in 0.1 M acetic acid buffer (pH 5) with or without addition of 100 μl of B-glucuronidase/arylsulfatase at 37°C for 3 hours on a shaking water bath. Afterwards, an aliquot of 950 μl of each samples were cleaned on the Oasis HLB cartridges and analysed as described for urine samples [22].
# [4] = Toxicokinetics in plasma after oral administration of bracken extract or dried bracken fern; type: in vivo, Jersey heifers; settings: for AUC0-∞ / MTT mean transit time: PTB in plasma; for Cmax / Tmax / k el: female, Jersey, plasma, po; for Cmax: read-out: Cmax maximum concentration; for k el: read-out: λz terminal slope (converted); for PTA in plasma after oral administration: bracken extract or dried bracken fern, Experiments 2, 3 and 5
# Method: Two heifers (no’s 4848 and 4849) were used in a series of five experiments (Table 1) in a cross-over design including intravenous administration of pure PTA, oral administration of bracken extract and oral administration of dried bracken fern. At least 2 weeks elapsed between each experiment.
# Oral exposure, bracken extract. Bracken extract was administered orally by gavage in Experiment 2 (170 and 172 mL) and Experiment 5 (820 and 850 mL), to obtain PTA doses of 0.41 and 2 mg kg^-1 b.w (1.025 and 5.000 μmoles kg^-1), respectively. Blood and urine samples were collected up to 48 hours after gavage and samples were processed and stored as described previously.
# Oral exposure, dried bracken fern. In Experiment 3, dried bracken fern was milled to a fine powder. Immediately before administration, the powder was mixed with water to produce a slurry (15 g of bracken per 100 mL of water). The slurry was administered orally by gavage (400 mL and 380 mL) corresponding to a PTA dose of 1.6 mg kg^-1 b.w (4 μmoles kg^-1). Blood and urine samples were collected up to 72 hours after gavage and the samples were processed and stored as described above.
# Concentrations of PTA in plasma of individual animals were evaluated by non-compartmental analysis. Toxicokinetic variables were calculated using standard kinetic equations. The area under the curve (AUC) and the area under the first moment curve (AUMC) were determined using combined linear and natural logarithm trapezoidal rules. The terminal elimination rate was determined using the last three data points of the curve.
# as §1
# [5] = design: method as in PMID 21456622; settings: calves fed P. esculentum, PTA dose 4.5 μmol kg^-1 b.w.; cited from earlier work
# [6] = Incubation of bracken extract in rumen liquid, in vitro; type: in vitro ADME, Jersey cows; settings: boiled (sterilized) or pre-frozen rumen fluid
# [7] = cited from earlier work
# [8] = oral bracken extract, PTA dose 1.03 μmoles kg^-1, heifer no 4848
# [9] = oral bracken extract, PTA dose 1.03 μmoles kg^-1, heifer no 4849
# [10] = oral bracken extract, PTA dose 5.02 μmoles kg^-1, heifer no 4848
# [11] = oral bracken extract, PTA dose 5.02 μmoles kg^-1, heifer no 4849
# [12] = oral dried bracken, PTA dose 4.02 μmoles kg^-1, heifer no 4848
# [13] = oral dried bracken, PTA dose 4.02 μmoles kg^-1, heifer no 4849
# [14] = bovine, 1.03 μmoles kg^-1, PTB in plasma, oral bracken extract, PTA dose 1.03 μmoles kg^-1, heifer no 4848
# [15] = bovine, 1.03 μmoles kg^-1, PTB in plasma, oral bracken extract, PTA dose 1.03 μmoles kg^-1, heifer no 4849
# [16] = bovine, 4.02 μmoles kg^-1, PTB in plasma, oral dried bracken, PTA dose 4.02 μmoles kg^-1, heifer no 4848
# [17] = bovine, 4.02 μmoles kg^-1, PTB in plasma, oral dried bracken, PTA dose 4.02 μmoles kg^-1, heifer no 4849
# [18] = bovine, 5.02 μmoles kg^-1, PTB in plasma, oral bracken extract, PTA dose 5.02 μmoles kg^-1, heifer no 4848
# [19] = bovine, 5.02 μmoles kg^-1, PTB in plasma, oral bracken extract, PTA dose 5.02 μmoles kg^-1, heifer no 4849
# [20] = cows fed bracken for 5 days, PTA dose 23 μmol kg^-1
smiles,measurement,setting,value
"Cc1cc2c(c(C)c1CCO)C(=O)[C@H](C)C2 [PTB, pterosin B]",dose recovered in urine as PTB,[1],12%
same,PTB as share of the added PTA,[2]; 5 min after the start of incubation,10%
same,PTB concentration in rumen liquid,"[2]; after 120 min, 37 °C",2.7 µM
same,PTB as share of the added PTA,[2]; final sampling (120 min),16%
same,PTB concentration in rumen liquid,"[2]; starting time, rumen liquid of two cows, 37 °C",1.35 µM and 1.62 µM
same,conjugation with glucuronic acid or sulphate in urine,[3],not conjugated with either glucuronic acid or sulphate
same,AUC0-∞,[4]; [8],0.177 µM·h
same,MTT mean transit time,[4]; [8],3.82 h
same,AUC0-∞,[4]; [9],0.367 µM·h
same,MTT mean transit time,[4]; [9],4.55 h
same,AUC0-∞,[4]; [10],0.594 µM·h
same,MTT mean transit time,[4]; [10],2.89 h
same,AUC0-∞,[4]; [11],0.657 µM·h
same,MTT mean transit time,[4]; [11],3.02 h
same,AUC0-∞,[4]; [12],0.897 µM·h
same,MTT mean transit time,[4]; [12],3.29 h
same,AUC0-∞,[4]; [13],0.428 µM·h
same,MTT mean transit time,[4]; [13],3.58 h
same,PTB in plasma and urine after oral administration,[4]; bracken extract or dried ferns,detected in both plasma and urine
same,Cmax,[4]; [14],28 nM
same,Tmax,"[4]; bovine, 1.03 μmoles kg^-1, PTB in plasma, oral bracken extract, PTA dose 1.03 μmoles kg^-1, heifer no 4848, read-out: Tmax time at maximum concentration",2 h
same,k el,[4]; [14],6.5e-05 s⁻¹
same,Cmax,[4]; [15],43 nM
same,Tmax,"[4]; bovine, 1.03 μmoles kg^-1, PTB in plasma, oral bracken extract, PTA dose 1.03 μmoles kg^-1, heifer no 4849, read-out: Tmax time at maximum concentration",0.5 h
same,k el,[4]; [15],2.78e-05 s⁻¹
same,Cmax,[4]; [16],182 nM
same,Tmax,"[4]; bovine, 4.02 μmoles kg^-1, PTB in plasma, oral dried bracken, PTA dose 4.02 μmoles kg^-1, heifer no 4848, read-out: Tmax time at maximum concentration",0.5 h
same,k el,[4]; [16],8.56e-05 s⁻¹
same,Cmax,[4]; [17],74 nM
same,Tmax,"[4]; bovine, 4.02 μmoles kg^-1, PTB in plasma, oral dried bracken, PTA dose 4.02 μmoles kg^-1, heifer no 4849, read-out: Tmax time at maximum concentration",2 h
same,k el,[4]; [17],7.78e-05 s⁻¹
same,Cmax,[4]; [18],160 nM
same,Tmax,"[4]; bovine, 5.02 μmoles kg^-1, PTB in plasma, oral bracken extract, PTA dose 5.02 μmoles kg^-1, heifer no 4848, read-out: Tmax time at maximum concentration",1 h
same,k el,[4]; [18],0.000106 s⁻¹
same,Cmax,[4]; [19],174 nM
same,Tmax,"[4]; bovine, 5.02 μmoles kg^-1, PTB in plasma, oral bracken extract, PTA dose 5.02 μmoles kg^-1, heifer no 4849, read-out: Tmax time at maximum concentration",0.75 h
same,k el,[4]; [19],8.06e-05 s⁻¹
same,Tmax,"[4]; cattle, PTB, oral bracken extract and bracken fern, read-out: time to maximum concentration in plasma (Tmax)",~1 h
same,peak concentration of PTB in plasma relative to the single dose study of this paper,[5],26 times
"CC1=C[C@]2(O[C@@H]3O[C@H](CO)[C@@H](O)[C@H](O)[C@H]3O)C[C@@H](C)C(=O)[C@@H]2[C@](C)(O)C12CC2 [PTA, (2'R,3a'R,4'S,7a'R)-4'-Hydroxy-2',4',6'-trimethyl-3'-oxo-2',3',3a',4'-tetrahydrospiro[cyclopropane-1,5'-inden]-7a'(1'H)-yl β-D-glucopyranoside]",degradation of PTA in boiled or pre-frozen rumen fluid,[6],did not reveal any degradation; also recorded: did not degrade PTA
same,dose recovered in urine as PTA,[1],30%
same,time after feeding bracken at which PTA was found in milk,[7],38 h
same,PTA excreted in milk as share of the dose,[7]; [20],9.6 % of the dose
same,plateau of PTA excreted in milk,[7]; [20],50 µM
same,PTA concentration in milk,"[7]; one cow fed 6 kg freshly cut bracken daily for 7 days, PTA 540 μmol day^-1",0.28 µM
same,stability of PTA in fresh rumen fluid (in words),"[2]; fresh rumen fluid, 37 °C, pH 6.6",detectable in rumen fluid from cow no 1 only immediately after start; also recorded: lost within few minutes
same,time during which PTA was observed in rumen liquid,"[2]; fresh rumen liquid, 17 μM, 37 °C",≤ 5 min
same,conjugation with glucuronic acid or sulphate in urine,[3],not conjugated with either glucuronic acid or sulphate
same,PTA in plasma after oral administration,[4],not detected; also recorded: neither detected
same,PTA in plasma after oral administration,[4]; listed as ptaquiloside,did not result in observations of ptaquiloside in body fluids

# From article PMC6588243, “Fate of ptaquiloside—A bracken fern toxin—In cattle” (PLoS ONE, 2019)
